Assay [1] relates to mdx mice. As to the kind of experiment: Baroreflex pressor response to phenylephrine after β-adrenergic blockade in mdx mice. Format: in vivo, mouse. As to conditions: phenylephrine 3 mg/kg i.p. after propranolol 1 mg/kg. The procedure:
(§1) ECGs were recorded in conscious mice as follows. Briefly, mice were gently removed from their cages and positioned on the ECG recording platform (AnonyMOUSE, Mouse Specifics, Inc., Boston, Mass.). An array of gel-coated ECG electrodes were embedded in the floor of the platform and spaced to provide contact between the electrodes and animals' paws. The electrodes were connected to an amplifier by three shielded conductive leads. As even modest handling of mice induces significant alterations in heart-rate, each mouse was permitted to acclimatize for 10 min prior to collection of baseline data. The signals were digitized with 16-bit precision at a sampling rate of 2000 samples/second. When mice were sitting or otherwise positioned such that the paws were not in contact with three electrodes, the output from the amplifier was discarded. Only data from continuous recordings of 15-25 ECG signals were used in the analyses.
(§2) Analyses of the ECGs were performed as described as follows. Each signal was analyzed using e-MOUSE, internet-based physiologic waveform analyses software. The program incorporates Fourier analyses and linear time-invariant digital filtering of frequencies below 2 Hz and above 100 Hz to minimize signal environmental disturbances. […] The mean of the ECG time intervals for each set of waveforms is then calculated.
(§3) Heart-rate variability (HRV) was calculated as the standard deviation of all R—R intervals for each set of ECG signals. The coefficient of variance (CV,%) was calculated as the ratio of mean HRV to mean heart-rate.
(§4) Mice were administered intraperitoneal phenylephrine (3 mg/kg) after β-adrenergic blockade with propranolol (1 mg/kg) to test for a baroreflex-mediated cardio-inhibitory response (n=10 mdx, n=7 C57).16,21 After baseline recordings, ECGs were recorded after a 5-10 min equilibrium phase following propranolol administration to allow for HR stabilization, and then within 2 min following phenylephrine administration. Changes in ECG indices following phenylephrine were determined relative to those recorded following propranolol administration. […]

The subject of assay [2] is C57 mice. As to the kind of experiment: Baroreflex pressor response to phenylephrine after β-adrenergic blockade in C57 mice. As to conditions: phenylephrine 3 mg/kg i.p. after propranolol 1 mg/kg. The class given is in vivo, mouse. The procedure:
as §1, §2, §3, §4

Assay [3] deals with nNOS -/- mice. As to the kind of experiment: Baroreflex pressor response to phenylephrine in nNOS -/- mice. The class given is in vivo, mouse.
Assay [4] concerns B6129 mice. As to the kind of experiment: Baroreflex pressor response to phenylephrine in B6129 control mice. The class given is in vivo, mouse.
For assay [5], the system named is mdx mice. As to the kind of experiment: Autonomic blockade, ECG heart rate and heart-rate variability in conscious mdx mice. Format: in vivo, mouse. The procedure:
(§5) Male control C57BL/10ScSn (C57, n=15) and male mutant (mdx, n=15) mice (10-12 weeks old) were obtained from The Jackson Laboratory, Bar Harbor, Me. The animals were housed in standard conditions within the Animal Resource Facility at the Beth Israel Deaconess Medical Center. Handling and care of mice were consistent with federal and institutional guidelines.
as §1
Analyses of the ECGs were performed as described as follows. Each signal was analyzed using e-MOUSE, internet-based physiologic waveform analyses software. […] The mean of the ECG time intervals for each set of waveforms is then calculated.
as §3
Parasympathetic and sympathetic nervous system control of heart-rate regulation were investigated by pharmacological blockade. […] Baseline ECGs were recorded within 5 min prior to each administration and after a 5-10 min equilibrium phase after drug administration to allow for HR stabilization. […]

Assay [6] relates to C57 mice. The experiment in a line: Autonomic blockade, ECG heart rate and heart-rate variability in conscious C57 control mice. The class given is in vivo, mouse. The procedure: as §5, §1
Analyses of the ECGs were performed as described as follows. Each signal was analyzed using e-MOUSE, internet-based physiologic waveform analyses software. The program incorporates Fourier analyses and linear time-invariant digital filtering of frequencies below 2 Hz and above 100 Hz to minimize signal environmental disturbances. The software uses a peak detection algorithm to find the peak of the R-waves and to calculate heart-rate (HR). The inverted and/or biphasic portions of the T wave was included in calculations of the QT interval. The QT intervals were rate corrected (QTc) by an algorithm developed for use in mice. The software plots its interpretation of P, Q, R, S, and T for each beat so that spurious data resulting from unfiltered noise or motion artifacts may be rejected. The mean of the ECG time intervals for each set of waveforms is then calculated.
as §3
Parasympathetic and sympathetic nervous system control of heart-rate regulation were investigated by pharmacological blockade. Mice received intraperitoneal administration of atropine (0.5 mg/kg) for parasympathetic blockade (n=15 mdx, n=15 C57), propranolol (1 mg/kg) for sympathetic blockade (n=10 mdx, n=7 C57), and atropine (0.5 mg/kg) plus propranolol (1 mg/kg) for combined β-adrenergic and muscarinic cholinergic blockade (n=10 mdx, n=7 C57). Baseline ECGs were recorded within 5 min prior to each administration and after a 5-10 min equilibrium phase after drug administration to allow for HR stabilization. The pharmacological interventions were performed on different days to prevent interference between drugs. […]
To study the effect of autonomic blockers on dystrophin deficient mice, parasympathetic and sympathetic nervous system control of heart-rate regulation were investigated by pharmacological blockade. […] Baseline ECGs were recorded within 5 min prior to each administration and after a 5-10 min equilibrium phase after drug administration to allow for HR stabilization.

For assay [7], the system named is nNOS -/- mice. The experiment in a line: Autonomic blockade, ECG heart rate and heart-rate variability in conscious nNOS -/- mice.
Where [8] appears, read: within 2 min, relative to post-propranolol.
Setting [9] is: phenylephrine after propranolol.
The mark [10] stands for this setting: C57 mice, i.p., 5-10 min after drug vs baseline, atropine 0.5 mg/kg, propranolol 1 mg/kg.

Molecules are shown by their SMILES.

Turning to `CNC[C@H](O)c1cccc(O)c1` [phenylephrine], the “CV after phenylephrine administration” value in assay [1] is 6.0±1.7%; in assay [2], 15.8±2.4%. In addition, the “HRV after phenylephrine administration” value turned out to be 8.5 ± 2.5 ms in assay [1] and 28.6 ± 4.1 ms in assay [2]. In addition, the “change in HR after phenylephrine” value in assay [1] (setting [8]) is −132±27 bpm; in assay [2] (setting [8]) it was −312±27 bpm; in assay [3] (setting [9]), −288±39 bpm; in assay [4] (setting [9]) it was −360±6 bpm. In addition, the “increase in HRV after phenylephrine” value is listed as “+13.3±3.7 ms” in assay [3] (Example 4) and “+11.8±3.7 ms” in assay [4] (Example 4).

For `CC(C)NCC(O)COc1cccc2ccccc12` (stereo not shown) [propranolol], the “change in HR” value is −60±27 bpm in assay [5] (mdx mice, i.p., 5-10 min after drug vs baseline, atropine 0.5 mg/kg, propranolol 1 mg/kg, mean±SE) and −122±53 bpm in assay [6] (C57 mice, i.p., 5-10 min after drug vs baseline, atropine 0.5 mg/kg, propranolol 1 mg/kg, mean±SE). For the same compound, the “change in HRV” value in assay [6] (setting [10]) was “more significant in C57 than mdx mice”.

In the case of `CN1[C@@H]2CC[C@H]1C[C@@H](OC(=O)C(CO)c1ccccc1)C2` (stereo partly shown) [atropine], the “direction of heart-rate change in individual mice” value in assay [5] (mdx mice n=15, atropine 0.5 mg/kg i.p.) is reported as “decreased in all 15 mdx mice”; in assay [6] (C57 mice n=15, atropine 0.5 mg/kg i.p.) it was “increased in all but 2 of the C57 mice”. Besides, in assay [5] (mdx mice, atropine 0.5 mg/kg i.p., FIG. 2a legend), the “HR decreased by” value was 90±14 bpm. The “HRV after atropine administration” value stood at 0.5 ± 0.9 ms in assay [6] (C57 mice, atropine 0.5 mg/kg i.p., baseline 2.7±0.9 ms) and 0.7 ± 0.1 ms in assay [7] (from 2.6±0.1 ms, P<0.05). In assay [6] (setting [10]), the “change in HRV” value was -1.6 ± 0.7 ms. The “directional change in HR in response to drug” value in assay [7] (FIG. 5) is listed as “significantly increased HR”. The “HR after atropine administration” value in assay [7] (baseline 686±22 bpm, P=0.07) turned out to be 721±12 bpm. Moreover, the “CV after atropine administration” value in assay [7] (from 2.7±0.8%, P<0.05) was found to be 0.8±0.1%.
